This note sets out measurements from patent publication EP0435222A2, “Aminopyridinylmethanols and aminomethylpyridinamines and related compounds, a process for their preparation and their use as medicaments” (HOECHST-ROUSSEL PHARMACEUTICALS INCORPORATED, priority 1989, dated 1991).

The subject of assay [1] is 2-phenyl-1,4-benzoquinone-induced writhing. Description: Inhibition of Phenylquinone-Induced Writhing in Mice (PQW). Format: in vivo, male CD-1 Charles River mice. Background: In writhing tests, fewer writhes than in controls are read as antinociception.
Protocol: A 0.125% concentration of phenyl-p-benzoquinone in a 5% aqueous solution of ethyl alcohol is administered to mice (10 mL/kg, ip). This produces a characteristic "writhe" which is defined as an inward rotation of one or more feet with twisting and turning of the trunk, drawing in of the abdominal wall, lordosis, and arching of the back. A total of 28 male CD-1 Charles River mice (18-30 g) are employed for a time-response. Animals receive food and water ad libitum during their stay in the animal quarters prior to testing. Compounds are tested at 20 mg/kg, sc and are prepared with distilled water, and if insoluble one drop of Tween-80, a surfactant is added. Compounds are administered in a dosage volume of 10 mL/kg.
Twenty mice (five per group) are administered the test compound at various pretreat time (e.g., 15,30,45, and 60 min) prior to phenylquinone injection. Control animals (two per group) receive an equal volume of vehicle. After the administration of phenylquinone, the mice are placed separately into 1-L beakers, and 5 min are allowed to elapse. The mice are then observed for a period of 10 min, and the number of writhes is recorded for each animal. The formula for computing percent inhibition is [drawing 20]
The time period with the maximum percent of inhibition is considered the peak time.
Assay [2] concerns Scopolamine Induced Memory Deficit. Description: Dark Avoidance Assay (reversal of scopolamine-induced memory deficit). The format is in vivo, mice. The note with it: for responders at 0.3 mg/kg: Dose 0.30 mg/kg of body weight; for responders at 0.16 mg/kg: Dose 0.16 mg/kg of body weight. The method, then: In this assay mice are tested for their ability to remember an unpleasant stimulus for a period of 24 hours. A mouse is placed in a chamber that contains a dark compartment: a strong incandescent light drives it to the dark compartment, where an electric shock is administered through metal plates on the floor. The animal is removed from the testing apparatus and tested again, 24 hours later, for the ability to remember the electric shock. If scopolamine, an anticholinergic that is known to cause memory impairment, is administered before an animal's initial exposure to the test chamber, the animal re-enters the dark compartment shortly after being placed in the test chamber 24 hours later. This effect of scopolamine is blocked by an active test compound, resulting in a greater interval before re-entry into the dark compartment. The results for an active compound are expressed as the percent of a group of animals in which the effect of scopolamine is blocked, as manifested by an increased interval between being placed in the test chamber and re-entering the dark compartment.

Assay [3] addresses T1, porcine pancreatic PLA₂ (Sus scrofa, UniProt P00592).
T1 construct: porcine pancreatic PLA₂ (3.2 units); from tissue; host or cells: porcine pancreas
As to the kind of experiment: In Vitro Phospholipase A₂ Assay (PLA₂). Format: biochemical. The method, then: The ability of a compound to modulate PLA₂ activity (cleavage of ¹⁴C-dipalmitoyl phosphotidylcholine at the 2-position to ¹⁴C-palmitic acid) was quantitated in this assay. The reaction mixture contained Tris buffer (25mM), pH 8.0, calcium chloride (2.0 mM), bovine serum albumin (0.5 mg), dipalmitoyl phosphotidylcholine (8x10⁻⁵M), (¹⁴C-palmitoyl)dipalmitoyl phosphotidylcholine (6x10³ cpm), porcine pancreatic PLA₂ (3.2 units) and the test compound. The reaction was run at 37°C in a shaking incubator. The reaction was quenched and an internal standard was added in order to determine sample recovery. […] See Feyen, J.H.M., et al., Journal of Chromatography 259 (1983), pp. 338-340.

The test system of assay [4] is naja naja (snake venom) phospholipase A₂-induced paw edema. Description: Phospholipase A₂-induced Paw Edema (PIPE). The format is in vivo, male Wistar rats. The conditions noted are these: for PIPE* (0.1 M): difference in edema vs. control, 0.1 M test compound injected with PLA₂ (3 units/paw), subplantar, rat hindpaw, two hours post administration. Here is the method:
The ability of compounds to prevent naja naja (snake venom) phospholipase A₂-induced paw edema in male Wistar rats (100-125 g) was measured. PLA₂ (3 units/paw) alone or with 0.1 M of the test compound was injected in the subplantar region of the rat left hindpaw. Immediately subsequent to the injection and at two hours post administration the paw was immersed in a mercury bath, and paw displacement was measured on a recorder via a transducer (Standard: hydrocortisone ED₅₀=0.46 M). See Giessler, A.J. et al., Agents and Actions, Vol. 10, Trends in Inflammation Research (1981), p. 195.

The test system of assay [5] is ear edema induced by topical application of TPA (phorbol 12-myristate acetate). As to the kind of experiment: TPA-Induced Ear Edema (TPAEE). Format: in vivo, Female Swiss Webster mice. The conditions noted are these: for TPAEE (10 µg): 10 µg/ear topical, TPA 10µg/ear, ear punch weight after five hours. The method, then:
The purpose of this assay was to determine the ability of a topically-applied compound to prevent ear edema induced by topical application of TPA (phorbol 12-myristate acetate). Female Swiss Webster mice topically received TPA (10µg/ear) on the right ear and vehicle on the left ear. The test compound (10 µg/ear) was applied to both ears. After five hours, the animals were sacrificed and an ear punch (4 mm) was taken from each ear. The difference in right and left ear punch weights for each animal was determined to assess activity (Standard: hydrocortisone ED₅₀=47 µg/ear). See Young, J.M. et al., J. Invest. Dermatol., 80 (1983), pp. 48-52.

Assay [6] relates to mouse ear edema induced by topical application of arachidonic acid. As to the kind of experiment: Arachidonic Acid-Induced Ear Edema (AAEE). The format is in vivo, Female Swiss Webster mice. The method, then: The purpose of this assay was to determine the ability of a topically-applied compound to prevent mouse ear edema induced by topical application of arachidonic acid. Female Swiss Webster mice topically received vehicle or test compound (1.0 mg/ear) on both ears (10µl on outer and inner ears). After 30 minutes, the right ear of all groups received arachidonic acid (4 mg/ear) and the left ear received vehicle alone. After an additional 1 hour, the mice were sacrificed and an ear punch (4 mm) was taken from each ear. The difference in right and left ear punch weights for each animal was determined to assess activity (Standard: indomethacin ED₅₀ = 1.5 mg/ear). See Young, J.M. et al., J. Invest. Dermatol., 80, (1983), pp 48-52.

The mark [7] stands for this setting: Mus musculus, sc, 24 h, s.c, read-out: % of Animals with Scopolamine Induced Memory Deficit Reversal.
Where [8] appears, read: 0.01 M test compound, porcine pancreatic PLA₂, 37°C, pH 8.0, change vs. control, read-out: PLA2* (0.01 M).

Where a name gives a salt, the structure may show the parent alone. Read-outs that look alike come from different tables or passages of the source.

T1 sequence (P00592 23-146): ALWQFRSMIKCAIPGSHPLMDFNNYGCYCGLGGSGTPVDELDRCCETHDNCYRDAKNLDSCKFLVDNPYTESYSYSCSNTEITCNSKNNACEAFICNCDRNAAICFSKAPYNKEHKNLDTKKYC

With `CCCCNCc1cnccc1N.Cl.Cl` [3-(Butylamino)methyl-4-pyridinamine dihydrochloride], the “PQW (% inhibition of writhing)” value in assay [1] (Dose 20 mg/kg, s.c.) stood at 62%. For the same compound, the responders at 0.3 mg/kg in assay [2] (setting [7]) was found to be 27%.

Consider `Cl.Cl.Nc1ccncc1CNCc1ccccc1` [3-[(Phenylmethylamino)methyl]-4-pyridinamine dihydrochloride], for which, in assay [3] (pH 8, read-out: PLA2* (0.01 M)), the inhibition at 10000 µM is 79%. For the same compound, the “PQW (% inhibition of writhing)” value in assay [1] (Dose 20 mg/kg, s.c.) turned out to be 40%. For the same compound, the “PIPE* (0.1 M)” value in assay [4] is -51%.

`CC(NCc1ccccc1)c1cnccc1N` (stereo not drawn) [4-Amino-α-methyl-N-(phenylmethyl)-3-pyridinemethanamine]: the “PIPE* (0.1 M)” value in assay [4] is -44%.

Regarding `Nc1ccncc1C(=NO)c1ccccc1F` [(4-Amino-3-pyridinyl)-(2-fluorophenyl)-methanone oxime], the “TPAEE (10 µg)” value in assay [5] was -56%. Moreover, the inhibition at 10000 µM in assay [3] (setting [8]) was determined as 32%.

Regarding `Nc1ccncc1C(N)c1ccccc1` (stereo not drawn) [(4-Amino-3-pyridinyl)benzenemethanamine dihydrochloride], the responders at 0.3 mg/kg in assay [2] (setting [7]) was 27%. For the same compound, the “PIPE* (0.1 M)” value in assay [4] is reported as -66%.

On to `Cl.Cl.Nc1ccncc1C(N)C1CCCCC1` (stereo not drawn) [(4-Amino-3-pyridinyl)cyclohexylmethanamine dihydrochloride], for which the inhibition at 10000 µM in assay [3] (pH 8, read-out: PLA2* (0.01 M)) is 72%. In assay [4], the “PIPE* (0.1 M)” value is reported as -68%.

In the case of `Cl.Nc1ccncc1C(=O)C1CCCCC1` [(4-Amino-3-pyridinyl)cyclohexylmethanone hydrochloride], the “TPAEE (10 µg)” value in assay [5] was -53%. Further, the inhibition at 10000 µM in assay [3] (pH 8, read-out: PLA2* (0.01 M)) turned out to be 82%.

In the case of `Nc1ccncc1C(=NO)C1CCCCC1` [(4-Amino-3-pyridinyl)cyclohexylmethanone oxime hydrochloride], the inhibition at 10000 µM in assay [3] (pH 8, read-out: PLA2* (0.01 M)) was determined as 99%.

As for `CC(NCc1ccccc1)c1cnccc1NC(=O)C(C)(C)C` (stereo not drawn) [N-[3-[1-(Phenylmethylamino)ethyl]-4-pyridinyl]-2,2-dimethylpropanamide dihydrochloride], in assay [3] (pH 8, read-out: PLA2* (0.01 M)), the inhibition at 10000 µM was found to be 74%.

With `CNC(=O)Oc1ccc2c(c1)[C@]1(C)CCN(C)[C@@H]1N2C` [Physostigmine, reference compound], in assay [2] (mouse, in vivo, 0.31 mg/kg), the “% of Animals with Scopolamine Induced Memory Deficit Reversal” value is 20%.

As for `CCC(=O)O[C@](Cc1ccccc1)(c1ccccc1)[C@H](C)CN(C)C` [Propoxyphene, reference compound], in assay [1] (Dose 3.9 mg/kg, s.c. (reference compound)), the “PQW (% inhibition of writhing)” value is 50%.

`C[C@]12CCC(=O)C=C1CC[C@@H]1[C@@H]2[C@@H](O)C[C@@]2(C)[C@H]1CC[C@]2(O)C(=O)CO` [hydrocortisone, reference compound]: the ED₅₀ in assay [5] (standard of the TPAEE assay, topical) was 47 µg/ear; in assay [4] (standard of the PIPE assay), 0.46 M.

Turning to `COc1ccc2c(c1)c(CC(=O)O)c(C)n2C(=O)c1ccc(Cl)cc1` [indomethacin, reference compound], the ED₅₀ in assay [6] (standard of the AAEE assay, topical) amounted to 1.5 mg/ear.

In the case of `Nc1ccncc1C(O)c1ccccc1F` (stereo not drawn) [α-(2-Fluorophenyl)-4-amino-3-pyridinylmethanol hydrochloride], the responders at 1 mg/kg in assay [2] (Mus musculus, sc, 24 h, Dose 1.0 mg/kg of body weight, s.c, read-out: % of Animals with Scopolamine Induced Memory Deficit Reversal) worked out at 40%. Also, the “PIPE* (0.1 M)” value in assay [4] is -56%.

Turning to `CC(C)(C)C(=O)Nc1ccncc1C(O)C1CCCCC1` (stereo not drawn) [α-Cyclohexyl-4-(2,2-dimethylpropionamido)-3-pyridinylmethanol], the “AAEE (1 mg)” value in assay [6] (1.0 mg/ear topical, 30 minutes before arachidonic acid (4 mg/ear), ear punch weight after 1 hour) was -52%. For the same compound, in assay [5], the “TPAEE (10 µg)” value is -55%. Further, the responders at 0.16 mg/kg in assay [2] (setting [7]) was found to be 33%.

Take `Nc1ccncc1C(O)C1CCCCC1` (stereo not drawn) [α-Cyclohexyl-4-amino-3-pyridinylmethanol hydrochloride]: in assay [2] (setting [7]), the responders at 0.16 mg/kg amounted to 50%.

For the compound `CC(O)c1cnccc1NC(=O)C(C)(C)C` (stereo not drawn) [α-Methyl-4-(2,2-dimethylpropionamido)-3-pyridinylmethanol], the “PQW (% inhibition of writhing)” value in assay [1] (Dose 20 mg/kg, s.c.) is 89%.

On to `CC(O)c1cnccc1N` (stereo not drawn) [α-Methyl-4-amino-3-pyridinylmethanol hydrochloride], for which, in assay [2] (Mus musculus, sc, 24 h, Dose 1.25 mg/kg of body weight, s.c, read-out: % of Animals with Scopolamine Induced Memory Deficit Reversal), the responders at 1.25 mg/kg is 33%.

For `CC(C)(C)C(=O)Nc1ccncc1C(O)c1ccccc1` (stereo not drawn) [α.Phenyl-4-(2,2-dimethylpropionamido)-3-pyridinylmethanol], in assay [1] (Dose 20 mg/kg, s.c.), the “PQW (% inhibition of writhing)” value was determined as 38%. The responders at 0.31 mg/kg in assay [2] (Mus musculus, sc, 24 h, Dose 0.31 mg/kg of body weight, s.c, read-out: % of Animals with Scopolamine Induced Memory Deficit Reversal) came out at 40%.

Take `Nc1ccncc1C(O)c1ccccc1` (stereo not drawn) [α.Phenyl-4-amino-3-pyridinylmethanol hydrochloride]: the inhibition at 10000 µM in assay [3] (setting [8]) came to 87%. The responders at 0.63 mg/kg in assay [2] (Mus musculus, sc, 24 h, Dose 0.63 mg/kg of body weight, s.c, read-out: % of Animals with Scopolamine Induced Memory Deficit Reversal) is 27%.
